Source: patent US20100184031A1, “NOVEL ADIPOCYTOKINE VISFATIN/PBEF1 IS AN APOPTOSIS ASSOCIATED FACTOR INDUCED IN MONOCYTES DURING IN VIVO HIV-1 INFECTION” (priority 2007, published 2010)

Tests used:
[1] = test system: M-tropic R5 HIV lab-strain BaL; test: In vitro infection of PBMC cultures with HIV BaL, p24 ELISA / TCID50; assay type: cell-based
[2] = test system: M-tropic R5 HIV lab-strain BaL; test: In vitro infection of monocyte-derived macrophages (MDM) with HIV BaL, p24 ELISA / TCID50; assay type: cell-based; settings: MDM cultures
Description: (§1) For in vitro infection experiments, monocytes were obtained from buffy coats of healthy donors of the Blood Transfusion Center of Antwerp (Rode Kruis Vlaanderen, Belgium) by counterflow elutriation, as described previously (Van Herrewege et al., 2002). These cells were then differentiated to monocyte-derived macrophages (MDM) during seven days in RPMI 1640 medium (Bio-Whittaker, Verviers, Belgium) supplemented with 10% bovine fetal calf serum (Biochrom, Berlin, Germany), penicillin (100 U/ml) and streptomycin (100 μg/ml) (Roche Diagnostics, Mannheim, Germany) and 40 ng/ml M-CSF (PeproTech, London, United Kingdom) at 37° C. and 5.0% CO2. Half the medium was replaced after four days. Cells were then harvested and used for experiments in the same medium (without M-CSF).
(§2) For infection experiments, MDM were plated in 96-well plates at 7.5×10^5 cells/ml and pre-treated with recombinant visfatin (200 ng/ml) for 1 hour at 37° C. and 5.0% CO2. Then, virus was added in six-fold and incubated for 2 hours, again at 37° C. and 5.0% CO2. Cells were then washed 3× to remove unbound virus and incubated for 14 days. Productive infection was monitored via an in-house-developed p24 antigen ELISA, as described elsewhere (Beirnaert et al., 1998).
This viral infectivity can be quantified by calculating the TCID50 (Tissue Culture Infectious Dose 50%, i.e., the dose of virus that has a 50% chance of infecting a cell culture) values of the viral stocks. Addition of visfatin reduces the TCID50 values of BaL by approximately one log in both PBMC and MDM cultures, signifying a 90% reduction in viral infectivity (FIG. 7, Panel A).

[3] = test system: T-tropic X4 HIV lab-strain IIIB (=HxB2); test: In vitro infection with X4 HIV lab-strain IIIB, viral infectivity (TCID50); assay type: cell-based; settings: same experiment as for BaL
Method: as §2
This signifies that by selectively inhibiting R5 and not X4 HIV, visfatin contributes to the HIV co-receptor switch seen in ca. 50% of all patients in which the co-receptor usage of the dominant quasispecies within the patient switches from the moderately virulent R5 to the more aggressive X4, leading to increased progression to AIDS.

[4] = test system: X4 strain of the 968 clone (968-1); test: In vitro infection of MDM with clinical isolate 968-1 (X4), viral titer (TCID50); assay type: cell-based, HIV
Description: as §1, §2
R5 and X4 strains of the 968 viral clone were isolated from one patient, and differ only in co-receptor usage.

[5] = PBMC cultures, 200 ng/ml PBEF1, 14 days of culture
[6] = 200 ng/ml PBEF1, 14 days of culture

Compound | infectivity of HIVBaL (TCID50) ([1]; PBMC cultures, 100 μM nicotinamide mononucleotide, 14 days of culture) | reduction in viral infectivity [1, 5] [%] | reduction of TCID50 value of BaL [1, 5] | viral infectivity (productive infection, p24 secretion) ([1]; activated PBMC cultures, recombinant visfatin added prior to infection with BaL) | reduction in viral infectivity [2, 6] [%] | reduction of TCID50 value of BaL [2, 6] | viral infectivity (productive infection, p24 secretion) ([2]; recombinant visfatin (200 ng/ml) added prior to infection with BaL) | effect on viral infectivity of X4 strain IIIB [3] | viral titer of X4 clinical isolate in MDM [4, 6] | productive infection of MDM by X4 clinical isolate 968-1 ([4]; strain incapable of infecting untreated MDM)
NC(=O)c1ccc[n+]([C@@H]2O[C@H](COP(=O)([O-])O)[C@@H](O)[C@H]2O)c1 [NMN, nicotinamide mononucleotide, reference compound] | reduces the infectivity |  |  |  |  |  |  |  |  | 
visfatin: Recombinant visfatin (PBEF1, nicotinamide phosphoribosyltransferase) protein obtained from PeproTech |  | 90 | approximately one | decreases the viral infectivity | 90 | approximately one | decreases the viral infectivity | does not mediate this effect | increased the viral titer | allowed the 968-1 clone to establish a productive infection
